Calls of active or inactive are those of the source. For most assays here, no stated cut-off is given here; in the data, actives have a measured EC50 and inactives only a lower limit.
How the values were obtained:
[1] = target: Aryl hydrocarbon receptor (Homo sapiens, UniProt P35869); assay: Luminescence-based cell-based high throughput dose response assay for activators of the Aryl Hydrocarbon Receptor (AHR). [Related pubchem assays: 2796 (Primary screen (AHR activators in singlicate)), 2845 (Confirmation screen (AHR activators in triplicate)), 434939 (Counterscreen (PXR activators in triplicate)), 2804 (Summary (AHR activators))]; type: ADME
[2] = target: Potassium voltage-gated channel subfamily KQT member 2 (Rattus norvegicus, UniProt O88943, W236L); assay: KCNQ2 channel potentiators, dose response, mechanism study for KCNQ2 potentiator project, cell-based, automated electrophysiology (AID 2603); type: functional
[3] = target: T1, Adenosylmethionine-8-amino-7-oxononanoate aminotransferase (Mycobacterium tuberculosis, UniProt P9WQ81); assay: Mycobacterium tuberculosis BioA enzyme inhibitor Measured in Biochemical System Using Plate Reader - 2163-02_Inhibitor_Dose_CherryPick_Activity.; type: functional, Mycobacterium tuberculosis UT205
T1 sequence (P9WQ81 whole entry): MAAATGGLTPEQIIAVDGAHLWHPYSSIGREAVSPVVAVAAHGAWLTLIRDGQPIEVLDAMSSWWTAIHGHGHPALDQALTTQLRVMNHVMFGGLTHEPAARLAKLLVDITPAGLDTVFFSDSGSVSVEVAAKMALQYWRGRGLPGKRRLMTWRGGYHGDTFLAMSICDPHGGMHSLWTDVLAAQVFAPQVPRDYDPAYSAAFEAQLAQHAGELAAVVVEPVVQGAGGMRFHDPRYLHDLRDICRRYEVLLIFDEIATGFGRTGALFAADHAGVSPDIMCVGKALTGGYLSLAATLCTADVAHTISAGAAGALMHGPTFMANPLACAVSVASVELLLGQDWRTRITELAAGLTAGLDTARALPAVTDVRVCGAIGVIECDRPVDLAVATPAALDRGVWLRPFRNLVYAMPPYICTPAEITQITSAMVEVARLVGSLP

[4] = system: Streptococcus sp. 'group A'; assay: growth inhibition of control SK(-) GAS strain, dose response, counter-screen for streptokinase expression inhibitor project, luminescence, kanamycin, BacTiterGlo, confirmation (AID 1900); type: functional, organism-based
Streptococcus = assay: Group A Streptococcus viability loss, dose response, counter-screen for streptokinase expression inhibitor project, luminescence, BacTiterGlo (AID 1915); type: functional, organism-based;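 further: potency for reduction of bacterial viability or growth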
Streptokinase A = target: T2, Streptokinase A (Streptococcus pyogenes serotype M1, UniProt P10520); assay: S. pyogenes streptokinase expression inhibitors, potency, dose response, plasminogen activation absorbance, OD405 (AID 1914); type: functional, Streptococcus pyogenes M1 GAS;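 further: secreted streptokinase activity via plasminogen activation per viability signal from cell pellet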
T2 sequence (P10520 whole entry): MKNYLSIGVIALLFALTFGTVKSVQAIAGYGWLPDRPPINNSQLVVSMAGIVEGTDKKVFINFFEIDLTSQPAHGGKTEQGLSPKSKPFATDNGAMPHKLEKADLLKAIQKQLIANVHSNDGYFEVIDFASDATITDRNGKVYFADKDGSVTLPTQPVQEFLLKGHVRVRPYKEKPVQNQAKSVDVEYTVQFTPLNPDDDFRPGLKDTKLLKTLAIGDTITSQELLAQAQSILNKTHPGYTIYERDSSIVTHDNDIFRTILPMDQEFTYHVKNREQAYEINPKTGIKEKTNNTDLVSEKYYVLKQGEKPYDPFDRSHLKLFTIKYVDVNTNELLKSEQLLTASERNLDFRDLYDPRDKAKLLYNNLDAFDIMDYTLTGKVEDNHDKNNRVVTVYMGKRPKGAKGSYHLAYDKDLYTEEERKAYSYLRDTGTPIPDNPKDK

[5] = inhibitors of intracellular T. cruzi replication, confirmation, NIH3T3 host cells, beta-gal luminescence (AID 2044); type: functional, cell-based;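 further: intracellular parasites grown in NIH/3T3 mouse fibroblasts as host cells; luminescent beta-galactosidase reporter signal from transgenic T. cruzi replicating inside host cells; inhibitors lower the luminescence signal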
[6] = cytotoxicity toward NIH3T3 fibroblasts, dose response, counter-screen, cell-based, ATP luminescence, mouse fibroblasts (AID 2010); type: functional;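 further: cells exposed to compound for about 90 hours before reading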
Vero = assay: host cell cytotoxicity of antiviral hits, dose response, cytotoxicity control for West Nile virus antiviral project, secondary assay (AID 1650); type: functional; conditions: Chlorocebus sabaeus
[7] = Luminescence Cell-Based Dose Response to Identify Activators of 5'UTR Stem-Loop Driven Prion Protein mRNA Translation in H4-C Neuroglioblastoma Cells. [Related pubchem assays: 1829 (Project Summary), 1814 (Primary HTS)]; type: functional
[8] = Luminescence Cell-Based Dose Response to Identify Activators of Luciferase Translation or Activity in H4-C Neuroglioblastoma Cells. [Related pubchem assays: 1829 (Project Summary), 1814 (Primary HTS)]; type: functional
[9] = Luminescence Cell-Based Dose Confirmation HTS to Identify Activators of 5'UTR Stem-Loop Driven Alpha-Synuclein mRNA Translation in H4 Neuroglioblastoma Cells. [Related pubchem assays: 1829 (Project Summary), 1814 (Primary HTS)]; type: functional
H4 = assay: Luminescence Cell-Based Dose Response HTS to Identify Activators of 5'UTR Stem-Loop Driven Prion Protein mRNA Translation in H4 Neuroglioblastoma Cells. [Related pubchem assays: 1829 (Project Summary), 1814 (Primary HTS)]; type: functional; conditions: Homo sapiens
[10] = Luminescence Cell-Based Dose Confirmation to Identify Activators of 5'UTR Stem-Loop Driven Alpha-Synuclein mRNA Translation in H4 Neuroglioblastoma Cells. [Related pubchem assays: 1829 (Project Summary), 1814 (Primary HTS)]; type: functional
[11] = target: Sphingosine 1-phosphate receptor 1 (Homo sapiens, UniProt P21453); assay: Dose Response Cell-Based Assay for Agonists of the Sphingosine 1-Phosphate Receptor 1 (S1P1): Purchased Analogues. [Related pubchem assays: 1192, 373, 439 ]; type: functional
[12] = target: Sphingosine 1-phosphate receptor 2 (Homo sapiens, UniProt O95136); assay: Dose Response Cell-Based Assay for Agonists of the Sphingosine 1-Phosphate Receptor 2 (S1P2): Purchased Analogues. [Related pubchem assays: 1192, 373, 439 ]; type: functional
[13] = target: Sphingosine 1-phosphate receptor 3 (Homo sapiens, UniProt Q99500); assay: Dose Response Cell-Based Assay for Agonists of the Sphingosine 1-Phosphate Receptor 3 (S1P3): Purchased Analogues. [Related pubchem assays: 373, 439 ]; type: functional
Chain of Sphingosine 1-phosphate receptor 3 (Q99500 whole entry): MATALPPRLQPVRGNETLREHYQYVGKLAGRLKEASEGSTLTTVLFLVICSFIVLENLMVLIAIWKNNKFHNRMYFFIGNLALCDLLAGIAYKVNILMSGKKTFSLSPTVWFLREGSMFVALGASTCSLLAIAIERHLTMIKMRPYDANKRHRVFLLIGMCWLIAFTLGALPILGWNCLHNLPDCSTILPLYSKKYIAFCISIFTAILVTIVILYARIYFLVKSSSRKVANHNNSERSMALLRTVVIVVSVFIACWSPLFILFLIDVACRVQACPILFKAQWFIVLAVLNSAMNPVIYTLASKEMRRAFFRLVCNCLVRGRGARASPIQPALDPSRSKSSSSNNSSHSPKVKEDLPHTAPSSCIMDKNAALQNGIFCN

Chain of Aryl hydrocarbon receptor (P35869 whole entry): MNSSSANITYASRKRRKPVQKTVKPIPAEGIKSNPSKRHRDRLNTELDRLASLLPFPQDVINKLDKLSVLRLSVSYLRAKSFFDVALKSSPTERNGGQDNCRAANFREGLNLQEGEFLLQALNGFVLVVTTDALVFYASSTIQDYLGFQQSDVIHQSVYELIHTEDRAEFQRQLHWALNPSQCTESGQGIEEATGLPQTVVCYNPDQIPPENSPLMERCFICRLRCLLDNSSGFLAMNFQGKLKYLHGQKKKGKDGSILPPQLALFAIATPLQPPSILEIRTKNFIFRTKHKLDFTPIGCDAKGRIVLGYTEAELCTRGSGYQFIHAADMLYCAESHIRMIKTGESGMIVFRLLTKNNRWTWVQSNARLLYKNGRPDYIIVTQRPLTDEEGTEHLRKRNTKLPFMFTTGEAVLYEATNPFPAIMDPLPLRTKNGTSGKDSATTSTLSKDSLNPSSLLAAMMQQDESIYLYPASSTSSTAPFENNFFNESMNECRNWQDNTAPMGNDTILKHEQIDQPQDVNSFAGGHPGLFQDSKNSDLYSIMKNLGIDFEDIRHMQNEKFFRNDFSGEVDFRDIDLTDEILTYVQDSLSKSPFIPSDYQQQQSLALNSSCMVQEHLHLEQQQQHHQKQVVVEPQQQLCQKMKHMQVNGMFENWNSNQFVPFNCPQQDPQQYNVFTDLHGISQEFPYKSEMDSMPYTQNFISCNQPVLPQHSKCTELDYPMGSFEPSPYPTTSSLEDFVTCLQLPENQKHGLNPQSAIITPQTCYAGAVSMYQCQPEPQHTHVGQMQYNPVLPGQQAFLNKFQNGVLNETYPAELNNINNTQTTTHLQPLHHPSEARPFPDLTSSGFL
Chain of Potassium voltage-gated channel subfamily KQT member 2 (O88943 whole entry W236L): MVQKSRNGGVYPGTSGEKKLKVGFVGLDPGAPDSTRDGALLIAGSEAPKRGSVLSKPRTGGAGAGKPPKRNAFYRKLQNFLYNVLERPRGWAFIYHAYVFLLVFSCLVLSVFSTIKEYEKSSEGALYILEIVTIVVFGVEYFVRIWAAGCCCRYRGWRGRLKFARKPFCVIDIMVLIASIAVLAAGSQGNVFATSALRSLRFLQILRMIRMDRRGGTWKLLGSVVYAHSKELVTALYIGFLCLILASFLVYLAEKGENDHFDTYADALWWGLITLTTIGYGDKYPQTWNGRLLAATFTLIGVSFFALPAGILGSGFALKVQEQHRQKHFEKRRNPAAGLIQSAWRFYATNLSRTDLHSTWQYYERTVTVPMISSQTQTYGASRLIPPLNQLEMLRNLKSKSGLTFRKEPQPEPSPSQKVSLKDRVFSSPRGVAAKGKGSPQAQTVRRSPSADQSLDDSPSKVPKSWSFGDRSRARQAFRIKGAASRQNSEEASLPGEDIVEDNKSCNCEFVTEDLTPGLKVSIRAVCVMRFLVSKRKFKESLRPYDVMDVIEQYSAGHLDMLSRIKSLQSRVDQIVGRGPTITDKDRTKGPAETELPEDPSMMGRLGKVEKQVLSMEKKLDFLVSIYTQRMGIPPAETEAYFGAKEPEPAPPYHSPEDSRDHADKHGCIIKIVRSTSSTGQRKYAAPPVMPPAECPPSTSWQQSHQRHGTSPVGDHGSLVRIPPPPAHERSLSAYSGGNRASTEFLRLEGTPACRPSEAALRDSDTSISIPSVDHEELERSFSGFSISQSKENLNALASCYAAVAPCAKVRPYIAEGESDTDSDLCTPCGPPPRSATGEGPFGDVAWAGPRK
Chain of Sphingosine 1-phosphate receptor 1 (P21453 whole entry): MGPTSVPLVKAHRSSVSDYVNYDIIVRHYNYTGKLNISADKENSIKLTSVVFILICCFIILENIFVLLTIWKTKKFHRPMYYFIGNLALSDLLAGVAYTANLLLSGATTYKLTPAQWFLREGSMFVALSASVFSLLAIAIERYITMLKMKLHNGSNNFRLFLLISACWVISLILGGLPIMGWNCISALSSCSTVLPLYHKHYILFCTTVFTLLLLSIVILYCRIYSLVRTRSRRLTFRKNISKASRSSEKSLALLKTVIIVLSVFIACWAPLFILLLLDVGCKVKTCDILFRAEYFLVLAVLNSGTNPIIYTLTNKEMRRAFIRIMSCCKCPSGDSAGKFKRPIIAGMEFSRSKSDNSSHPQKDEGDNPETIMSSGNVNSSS
Chain of Sphingosine 1-phosphate receptor 2 (O95136 whole entry): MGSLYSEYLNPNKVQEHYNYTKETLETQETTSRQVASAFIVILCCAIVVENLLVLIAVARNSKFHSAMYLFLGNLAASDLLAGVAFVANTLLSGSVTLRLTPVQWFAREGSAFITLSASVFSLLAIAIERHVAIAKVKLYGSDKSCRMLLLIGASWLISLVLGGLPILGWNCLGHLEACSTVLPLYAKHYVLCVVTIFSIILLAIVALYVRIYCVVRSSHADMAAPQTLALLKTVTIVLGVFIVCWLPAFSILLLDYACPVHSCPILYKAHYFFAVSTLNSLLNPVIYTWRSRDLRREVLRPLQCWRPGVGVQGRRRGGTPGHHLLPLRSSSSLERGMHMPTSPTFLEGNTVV

Cc1ccc(-c2cc(-c3cccs3)[nH]n2)c(O)c1
EC50 [1]: 1.21 µM (active)

O=C(Nc1cccnc1)c1ccc(Cl)c(Cl)c1
EC50 [2]: 26.2 µM (active)
AC50 [3]: 3.94 µM (active)

O=C(Nc1ccc(OC(F)(F)F)cc1)N1CCN(c2ccnc3cc(Cl)ccc23)CC1
EC50 [4]: 9.61 µM (active)
EC50 (Streptococcus): > 150 µM (not active)
EC50 (Streptokinase A): 12.7 µM (active)
EC50 [5]: 2.06 µM (active)
EC50 [6]: 14.4 µM (active)
CC50 (Vero): 2.95 µM (active)

CCc1cc2c(=O)n3c(nc2s1)-c1[nH]c2ccc(OC)cc2c1CC3
EC50 [7]: > 12 µM (not active)
EC50 [8]: 354 nM (active)
EC50 [9]: < 100 nM (active)
EC50 (H4): 3.18 µM (active)
EC50 [10]: 498 nM (active)

O=C(NC1CCCCC1)c1cc(-c2ccccc2)on1
EC50 [11]: 897 nM (active)
EC50 [12]: > 10 µM (not active)
EC50 [13]: > 50 µM (not active)

— ChEMBL document CHEMBL1201862, “PubChem BioAssay data set” (2004)
